This note sets out measurements from US10421761B2, “Compounds for kinase modulation, and indications therefor” (Plexxikon Inc., priority 2013, dated 2019).

Read-outs that look alike come from different tables or passages of the source. Where only a bound is given, the exact number is not on record here.

One test concerns the target T1, BRAF V600E (Homo sapiens, UniProt P15056, V600E).
T1 construct: purchased Upstate Biotechnology
Description: BRAF V600E biochemical kinase activity assay (AlphaScreen, biotin-MEK1 substrate). As to conditions: BRAF V600E biochemical inhibitory activity.

The subject of a further test is B9 (HRAS Q61L) cell line. Nature of the test: B9 P-ERK cell activation assay (AlphaScreen). Type of test: cell-based, mouse. The settings on record: Mus musculus, P-ERK cell activation, B9, read-out: Cell activity (EC50 μM) B9_pERK. An outline of the steps: (§1)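 Mouse B9 (HRAS-driven skin SCC) or human IPC-298 melanoma cells treated with an 8-point compound titration for one hour at 37° C., then lysed. ERK1/2 phosphorylation at Thr202/Tyr204 read by AlphaScreen with total-ERK and phospho-ERK antibodies.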

Test [1] has as its system IPC-298 (NRAS Q61L) cell line. Description: IPC-298 P-ERK cell activation assay (AlphaScreen). Type of test: cell-based, human. The settings on record: Homo sapiens, P-ERK cell activation, IPC-298, read-out: Cell activity (EC50 μM) IPC-298_P-ERK. The method, boiled down:
as §1

Test [2] concerns A375 (BRAF V600E) cell line. Nature of the test: A375 P-ERK inhibition assay (AlphaScreen). Type of test: cell-based, human. The settings on record: Homo sapiens, A-375; A375_P-ERK. The method, boiled down: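 A375 cells treated with 8-point compound titration for 1 h at 37° C, then lysed. ERK1/2 Thr202/Tyr204 phosphorylation measured by AlphaScreen, using biotinylated total-ERK antibody on donor beads and phospho-specific antibody on acceptor beads.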

T1 sequence (P15056 whole entry V600E): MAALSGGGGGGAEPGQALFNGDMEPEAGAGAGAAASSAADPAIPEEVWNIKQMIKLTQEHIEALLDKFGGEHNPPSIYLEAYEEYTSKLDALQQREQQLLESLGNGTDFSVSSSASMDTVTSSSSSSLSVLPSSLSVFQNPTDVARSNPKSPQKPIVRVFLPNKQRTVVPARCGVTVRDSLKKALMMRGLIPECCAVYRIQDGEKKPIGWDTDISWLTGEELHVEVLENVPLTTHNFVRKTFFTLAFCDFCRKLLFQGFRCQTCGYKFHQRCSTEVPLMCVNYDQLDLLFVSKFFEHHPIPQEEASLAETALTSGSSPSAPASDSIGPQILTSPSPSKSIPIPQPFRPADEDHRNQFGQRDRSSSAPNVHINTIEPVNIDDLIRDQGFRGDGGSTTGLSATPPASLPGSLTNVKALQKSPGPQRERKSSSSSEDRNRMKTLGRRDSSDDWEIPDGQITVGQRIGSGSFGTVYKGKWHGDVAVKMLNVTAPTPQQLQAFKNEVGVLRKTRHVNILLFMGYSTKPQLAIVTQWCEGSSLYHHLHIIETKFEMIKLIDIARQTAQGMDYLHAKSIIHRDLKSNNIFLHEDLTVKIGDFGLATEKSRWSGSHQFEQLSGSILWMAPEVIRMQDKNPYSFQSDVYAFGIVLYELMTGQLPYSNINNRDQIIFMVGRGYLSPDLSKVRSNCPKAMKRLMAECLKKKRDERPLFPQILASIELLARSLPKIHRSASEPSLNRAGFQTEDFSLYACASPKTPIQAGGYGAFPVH

For the compound `CCN(C)S(=O)(=O)Nc1ccc(F)c(C(=O)c2c[nH]c3ncnc(NC4CCC4)c23)c1F` [P-2101, 4-(cyclobutylamino)-5-[3-[[ethyl(methyl)sulfamoyl]amino]-2,6-difluoro-benzoyl]-7H-pyrrolo[2,3-d]pyrimidine], the IC50 (against BRAF V600E; in test [2]) was 0.0001 to 1 µM each time. Besides, the EC50 (in the test with B9 (HRAS Q61L) cell line (numeric bounds); in test [1] (numeric bounds)) was greater than 10 µM each time.

In the case of `N#Cc1ccnc2[nH]cc(C(=O)c3c(F)ccc(NS(=O)(=O)N4CCOCC4)c3F)c12` [P-2022, N-[3-(4-cyano-1H-pyrrolo[2,3-b]pyridine-3-carbonyl)-2,4-difluoro-phenyl]morpholine-4-sulfonamide], the IC50 (against BRAF V600E; in test [2]) was 0.0001 to 1 µM throughout. For the same compound, the EC50 (with B9 (HRAS Q61L) cell line (numeric bounds); in test [1] (numeric bounds)) was greater than 10 µM each time.

For `CCN(C)S(=O)(=O)Nc1cccc(C(=O)c2c[nH]c3ncnc(N[C@H](C)C4CC4)c23)c1F` [P-2079, 4-[[(1R)-1-cyclopropylethyl]amino]-5-[3-[[ethyl(methyl)sulfamoyl]amino]-2-fluoro-benzoyl]-7H-pyrrolo[2,3-d]pyrimidine], the IC50 (on BRAF V600E; in test [2]) was 0.0001 to 1 µM in each case. Moreover, the EC50 (with B9 (HRAS Q61L) cell line (numeric bounds); in test [1] (numeric bounds)) was greater than 10 µM each time.

Turning to `[2H]C1([2H])N(S(=O)(=O)Nc2cc(Cl)cc(C(=O)c3c[nH]c4ncc(-c5cnc(C6CC6)nc5)cc34)c2F)C([2H])([2H])C([2H])([2H])C1([2H])[2H]` [P-2177, N-[5-chloro-3-[5-(2-cyclopropylpyrimidin-5-yl)-1H-pyrrolo[2,3-b]pyridine-3-carbonyl]-2-fluoro-phenyl]-2,2,3,3,4,4,5,5-octadeuterio-pyrrolidine-1-sulfonamide], the IC50 (at BRAF V600E; in test [2]) was 0.0001 to 1 µM each time. For the same compound, the EC50 (with B9 (HRAS Q61L) cell line (numeric bounds); in test [1] (numeric bounds)) was greater than 10 µM in each case.

In the case of `O=C(c1c(F)ccc(NS(=O)(=O)C2CCCC2)c1F)c1c[nH]c2nccc(Cl)c12` [P-2015, N-[3-(4-chloro-1H-pyrrolo[2,3-b]pyridine-3-carbonyl)-2,4-difluoro-phenyl]cyclopentanesulfonamide], the IC50 on BRAF V600E is 0.0001 to 1 µM; in test [2], greater than 10 µM. In addition, the EC50 (with B9 (HRAS Q61L) cell line (numeric bounds); in test [1] (numeric bounds)) was greater than 10 µM throughout.

For the compound `N#Cc1ccnc2[nH]cc(C(=O)c3c(F)ccc(NS(=O)(=O)C4CCCCC4)c3F)c12` [P-2018, N-[3-(4-cyano-1H-pyrrolo[2,3-b]pyridine-3-carbonyl)-2,4-difluoro-phenyl]cyclohexanesulfonamide], the IC50 at BRAF V600E was 0.0001 to 1 µM; in test [2] it was greater than 10 µM. Besides, the EC50 (in the test with B9 (HRAS Q61L) cell line (numeric bounds); in test [1] (numeric bounds)) was greater than 10 µM throughout.

Consider `CN(C)S(=O)(=O)Nc1cc(F)cc(C(=O)c2c[nH]c3ncc(-c4cnc(C5CC5)nc4)cc23)c1F` [P-2173, 5-(2-cyclopropylpyrimidin-5-yl)-3-[3-(dimethylsulfamoylamino)-2,5-difluoro-benzoyl]-1H-pyrrolo[2,3-b]pyridine], for which the IC50 (against BRAF V600E; in test [2]) was 0.0001 to 1 µM each time. The EC50 in the test with B9 (HRAS Q61L) cell line (numeric bounds) was greater than 10 µM; in test [1] (numeric bounds), greater than 1 µM.

As for `N#Cc1ccnc2[nH]cc(C(=O)c3c(F)ccc(NS(=O)(=O)C4CCC4)c3F)c12` [P-2021, N-[3-(4-cyano-1H-pyrrolo[2,3-b]pyridine-3-carbonyl)-2,4-difluoro-phenyl]cyclobutanesulfonamide], the figures for the IC50 (against BRAF V600E; in test [2]) were 0.0001 to 1 µM and greater than 10 µM, respectively. The EC50 (in the test with B9 (HRAS Q61L) cell line (numeric bounds); in test [1] (numeric bounds)) was greater than 10 µM throughout.

Consider `CC(C)(C)c1nc(-c2cccc(NS(=O)(=O)N3CC[C@@H](F)C3)c2F)c(-c2ccnc(N)n2)s1` [P-2129, (3R)-N-[3-[5-(2-aminopyrimidin-4-yl)-2-tert-butyl-thiazol-4-yl]-2-fluoro-phenyl]-3-fluoro-pyrrolidine-1-sulfonamide], for which the IC50 (on BRAF V600E; in test [2]) was 0.0001 to 1 µM throughout. For the same compound, the EC50 (in the test with B9 (HRAS Q61L) cell line (class symbols); in test [1] (class symbols)) was 0.0001 to 1 µM throughout.

Turning to `O=C(c1cc(C(F)(F)F)cc(NS(=O)(=O)N2CC[C@@H](F)C2)c1F)c1c[nH]c2ncc(-c3cnc(C4CC4)nc3)cc12` [P-2178, (3R)—N-[3-[5-(2-cyclopropylpyrimidin-5-yl)-1H-pyrrolo[2,3-b]pyridine-3-carbonyl]-2-fluoro-5-(trifluoromethyl)phenyl]-3-fluoro-pyrrolidine-1-sulfonamide], the values for the IC50 (at BRAF V600E; in test [2]) were 0.0001 to 1 µM and 1 to 10 µM, respectively. For the same compound, the EC50 (in the test with B9 (HRAS Q61L) cell line (numeric bounds); in test [1] (numeric bounds)) was greater than 10 µM throughout.

With `CCN(C)S(=O)(=O)Nc1cccc(C(=O)c2c[nH]c3ncnc(NCCOC)c23)c1F` [P-2073, 5-[3-[[ethyl(methyl)sulfamoyl]amino]-2-fluoro-benzoyl]-4-(2-methoxyethylamino)-7H-pyrrolo[2,3-d]pyrimidine], the IC50 (against BRAF V600E; in test [2]) was 0.0001 to 1 µM each time. Also, the EC50 (in the test with B9 (HRAS Q61L) cell line (numeric bounds); in test [1] (numeric bounds)) was greater than 10 µM throughout.

Turning to `CCOC(=O)CNc1ncnc2[nH]cc(C(=O)c3cccc(NS(=O)(=O)N4CCCC4)c3F)c12` [P-2103, ethyl 2-[[5-[2-fluoro-3-(pyrrolidin-1-ylsulfonylamino)benzoyl]-7H-pyrrolo[2,3-d]pyrimidin-4-yl]amino]acetate], the IC50 (against BRAF V600E; in test [2]) was 0.0001 to 1 µM throughout. The EC50 (in the test with B9 (HRAS Q61L) cell line (numeric bounds); in test [1] (numeric bounds)) was greater than 10 µM in each case.

For `O=C(c1c(F)ccc(NS(=O)(=O)C2CCC2)c1F)c1c[nH]c2nccc(Cl)c12` [Compound P-2008, N-[3-(4-chloro-1H-pyrrolo[2,3-b]pyridine-3-carbonyl)-2,4-difluoro-phenyl]cyclobutanesulfonamide], the IC50 (at BRAF V600E; in test [2]) was 0.0001 to 1 µM throughout. The EC50 (with B9 (HRAS Q61L) cell line (numeric bounds); in test [1] (numeric bounds)) was greater than 10 µM each time.

Consider `O=C(c1cccc(NS(=O)(=O)N2CCCC2)c1F)c1c[nH]c2ncncc12` [P-2032, N-[2-fluoro-3-(7H-pyrrolo[2,3-d]pyrimidine-5-carbonyl)phenyl]pyrrolidine-1-sulfonamide], for which the IC50 (against BRAF V600E; in test [2]) was 0.0001 to 1 µM throughout. The EC50 (with B9 (HRAS Q61L) cell line (numeric bounds); in test [1] (numeric bounds)) was greater than 10 µM in each case.

On to `O=C(c1cccc(NS(=O)(=O)N2CCCC2)c1F)c1c[nH]c2ncnc(NC[C@@H]3CCCO3)c12` [P-2082, N-[2-fluoro-3-[4-[[(2S)-tetrahydrofuran-2-yl]methylamino]-7H-pyrrolo[2,3-d]pyrimidine-5-carbonyl]phenyl]pyrrolidine-1-sulfonamide], for which the IC50 (against BRAF V600E; in test [2]) was 0.0001 to 1 µM throughout. Further, the EC50 (in the test with B9 (HRAS Q61L) cell line (numeric bounds); in test [1] (numeric bounds)) was greater than 10 µM throughout.

For `CCN(C)S(=O)(=O)Nc1cccc(C(=O)c2c[nH]c3ncnc(NCC(F)(F)F)c23)c1F` [P-2065, 5-[3-[[ethyl(methyl)sulfamoyl]amino]-2-fluoro-benzoyl]-4-(2,2,2-trifluoroethylamino)-7H-pyrrolo[2,3-d]pyrimidine], the IC50 (against BRAF V600E; in test [2]) was 0.0001 to 1 µM throughout. Besides, the EC50 (in the test on B9 (HRAS Q61L) cell line (numeric bounds); in test [1] (numeric bounds)) was greater than 10 µM in each case.

`CCN(C)S(=O)(=O)Nc1cccc(-c2nc(C(C)(C)C)sc2-c2ccnc(Cl)n2)c1F` [P-2085, 2-tert-butyl-5-(2-chloropyrimidin-4-yl)-4-[3-[[ethyl(methyl)sulfamoyl]amino]-2-fluoro-phenyl]thiazole]: the IC50 against BRAF V600E was 1 to 10 µM; in test [2] it was 0.0001 to 1 µM. Further, the EC50 (with B9 (HRAS Q61L) cell line (numeric bounds); in test [1] (numeric bounds)) was greater than 10 µM throughout.

Take `COC(=O)N[C@@H](C)CNc1nccc(-c2nn(C(C)C)cc2-c2cc(Cl)cc(NS(=O)(=O)C3CCC3)c2F)n1` [P-2169, methyl N-[(1S)-2-[[4-[4-[5-chloro-3-(cyclobutylsulfonylamino)-2-fluoro-phenyl]-1-isopropyl-pyrazol-3-yl]pyrimidin-2-yl]amino]-1-methyl-ethyl]carbamate]: the IC50 (at BRAF V600E; in test [2]) was 0.0001 to 1 µM throughout. Moreover, the EC50 (in the test on B9 (HRAS Q61L) cell line (class symbols); in test [1] (class symbols)) was 0.0001 to 1 µM in each case.

As to `CC(C)(O)CCNc1ncnc2[nH]cc(C(=O)c3cccc(NS(=O)(=O)N4CCCC4)c3F)c12` [P-2108, N-[2-fluoro-3-[4-[(3-hydroxy-3-methyl-butyl)amino]-7H-pyrrolo[2,3-d]pyrimidine-5-carbonyl]phenyl]pyrrolidine-1-sulfonamide], the IC50 (at BRAF V600E; in test [2]) was 0.0001 to 1 µM each time. Further, the 50% effective concentration (EC50) (with B9 (HRAS Q61L) cell line (numeric bounds); in test [1] (numeric bounds)) was greater than 10 µM throughout.

For the compound `CCN(C)S(=O)(=O)Nc1ccc(F)c(C(=O)c2c[nH]c3ncnc(NCCCOC)c23)c1F` [P-2116, 5-[3-[[ethyl(methyl)sulfamoyl]amino]-2,6-difluoro-benzoyl]-4-(3-methoxypropylamino)-7H-pyrrolo[2,3-d]pyrimidine], the IC50 (on BRAF V600E; in test [2]) was 0.0001 to 1 µM in each case. Besides, the EC50 (in the test with B9 (HRAS Q61L) cell line (numeric bounds); in test [1] (numeric bounds)) was greater than 10 µM in each case.

Consider `COc1ccnc2[nH]cc(C(=O)c3c(F)ccc(NS(=O)(=O)N4CCCC4)c3F)c12` [Compound P-2003, N-[2,4-difluoro-3-(4-methoxy-1H-pyrrolo[2,3-b]pyridine-3-carbonyl)phenyl]pyrrolidine-1-sulfonamide], for which the IC50 (against BRAF V600E; in test [2]) was 0.0001 to 1 µM in each case. In addition, the 50% effective concentration (EC50) (in the test on B9 (HRAS Q61L) cell line (numeric bounds); in test [1] (numeric bounds)) was greater than 10 µM in each case.
